Earlier results on 1 molecule are cited in US20080063637A1, “Regulation of oncogenesis by Akt-specific isoforms” (The Trustees of Tufts College, priority 2006, published 2008).

Structures are written as SMILES.

Data set [1] has as its system corresponding Akt isoforms (phosphorylation by PDK1). Particulars: Barnett et al. 2005.
Data set [2] relates to LNCap prostate cancer cells. The conditions noted are these: Barnett et al. 2005.

As for `O=c1[nH]c2ccccc2n1C1CCN(Cc2ccc(-c3nc4cc5nc[nH]c5cc4nc3-c3ccccc3)cc2)CC1` [Akt-I-1,2], in data set [1], the “phosphorylation and activation of the corresponding Akt isoforms by PDK1” value is “blocked”. The TRAIL-induced apoptosis entry in data set [2] was “promote”.
